# Measurements as given in patent US10907219B2, “Compositions and methods for controlling cellular function” (STC.UNM, priority 2014, dated 2021).
# Key:
# [1] = test system: EGFP-PYL and NES-ABI in CHO cells; assay: Live cell confocal EGFP nuclear export; format: cell-based; conditions: 10 μM, 405 nm irradiation, followed 20 minutes
# Experimental: (§1) To test the uncaging process in live cell experiments, EGFP nuclear export experiments were carried out by transfecting CHO cells with EGFP-PYL and NES-ABI constructs. The cells were then either treated with 10 μM ABA-DEACM and with or without 405 nm light irradiation under a confocal microscope, or with no drug but irradiated. The subcellular location of EGFP was followed for 20 minutes after irradiation. […] We also tested the use of ABA-DEACM in live cell imaging to induce cell morphology changes. We transfected CHO cells in a culture chamber with myr-ABI and EGFP-PYLTiam1 constructs.
# Live cell confocal microscopy irradiation and imaging: EGFP fluorescence of CHO cells was detected with an LSM 510 Meta confocal mounted on an AxioObserver inverted microscope (Carl Zeiss AG, Oberkochen, Germany). […] To image, fluorescence was excited with the 488 nm line of an argon laser (30 mW) with laser power attenuated to 50%. […]
# Image analysis of fluorescence intensity in nuclear export experiments: Generated images were analyzed for fluorescence intensity by using Slide Book v.6 software (Intelligent Imaging Innovations, Inc., Denver, Colo.). Equal sized regions of interest were analyzed from the cytoplasm and the nucleus to compare fluorescent intensity of EGFP in three cells for each condition from images taken every 20 seconds for a duration of 20 minutes.
# [2] = test system: myr-ABI and EGFP-PYL-Tiam1 in CHO cells; assay: Live cell imaging of cytoskeletal remodeling; format: cell-based; conditions: 405 nm irradiation
# Experimental: as §1
# Live cell confocal microscopy irradiation and imaging: EGFP fluorescence of CHO cells was detected with an LSM 510 Meta confocal mounted on an AxioObserver inverted microscope (Carl Zeiss AG, Oberkochen, Germany). ABA-DEACM was uncaged by using a 405 nm UV laser (25 mW) set to 25% power for approximately three seconds. To image, fluorescence was excited with the 488 nm line of an argon laser (30 mW) with laser power attenuated to 50%. EGFP emission was collected with a FITC filter. Live cells were plated in 8-well coverslip-bottom culture chambers in medium (200 μL) and maintained at 37° C. with an objective lens heater (Bioptechs Inc., Butler, Pa.). Culture medium was exchanged with OptiMEM (GIBCO, Life Technologies, Carlsbad, Calif.) with caged ABA or no drug prior to imaging. Images were acquired every 10 to 20 seconds in different experiments with a 63×5/1.2 NA water objective.
# [3] = Chemical stability of ABA-HP in HEPES/DMSO (HPLC); format: physicochemical; conditions: 1 mM, 50% HEPES/DMSO pH 7.4, 37° C., 24 hours
# Experimental: (§2) Chemical stability and reactivity of ABA-HP towards H2O2: ABA-HP chemical stability: 1 mM ABA-HP (in DMSO) was incubated in 50% HEPES/DMSO (10 mM HEPES, pH 7.4) for 24 hours at 37° C. HPLC results were detected at 0 minutes, 20 minutes, 40 minutes, 60 minutes, 80 minutes, 100 minutes, 120 minutes, 240 minutes, and 24 hours. ABA-HP reactivity towards H2O2: 1 mM ABA-HP was incubated with 5 mM (5 eq) H2O2 in 50% HEPES/DMSO (10 mM HEPES, pH 7.4) at 37° C. HPLC results were detected at 0 minutes, 20 minutes, 40 minutes, 80 minutes, 100 minutes, 120 minutes, and 240 minutes (FIGS. 1c, 4a and 4b). 100 mM H2O2 was diluted with 11 μL of 30% (10 M) stock H2O2 (VWR) and 989 μL of ddH2O. […] HPLC chromatograms were acquired using an ULTIMATE 3000 LC System (Thermo Fisher Scientific, Waltham, Mass.) with ACCLAIM 120 Å, C18, 3 μm analytical (4.6×100 mm) column (Thermo Fisher Scientific, Waltham, Mass.). Chromatographic conditions: eluent A: 0.1% v/v TFA in water; eluent B: 0.1% v/v TFA in acetonitrile. ABA in ethanol or ABA-HP in DMSO was eluted at a flow rate of 0.750 ml/min monitored at a wavelength of 260 nm. 0-12 min (linear): 95% A, 5% B to 5% A, 95% B; 12-15 min: 5% A, 95% B; 15-17 min (linear): 5% A, 95% B to 95% A, 5% B. Generation of ABA was quantified by the peak area of ABA out of the total peak area.
# [4] = ABA-HP reactivity towards H2O2 (HPLC); format: physicochemical; conditions: 1 mM + H2O2 (5 eq), 50% HEPES/DMSO, 37° C.
# Experimental: as §2
SMILES,nuclear export of EGFP fusion proteins [1],start of membrane ruffling after uncaging [2] [min],time to formation of fillopodia and lemellopodia [2] [min],time to formation of filopodia and lamellipodia [2] [min],chemical stability in biological buffer [3],completion of transformation to ABA [4],start of conversion back to ABA [4]
CCN(CC)c1ccc2c(COC(=O)/C=C(C)\C=C\[C@@]3(O)C(C)=CC(=O)CC3(C)C)cc(=O)oc2c1 [ABA-DEACM],observed within a few minutes,5,≤ 15,≤ 15,–,–,–
CC1=CC(=O)CC(C)(C)[C@@]1(O)/C=C/C(C)=C\C(=O)OCc1ccc(B2OC(C)(C)C(C)(C)O2)cc1 [ABA-HP],–,–,–,–,stable in biological buffer at 37 °C throughout the 24-hour observation period,completed in four hours,within minutes
